Biological target: P. falciparum apicoplast DNA polymerase (Pf-apPOL) (Plasmodium falciparum, UniProt Q8ILY1)
Test: Fluorescence-based high-throughput DNA polymerase assay (molecular beacon), primary screen and dose-response
Type: biochemical
Outline: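 Single-point screening used 10 µM compound with 20 nM polymerase, 20 nM hairpin substrate and 6 µM dNTPs for 90 min at 25 °C. Confirmatory titrations (2.5–80 µM) followed fluorescence at three times, and IC50 was derived from a fit including a cooperativity term n.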

Sequence of P. falciparum apicoplast DNA polymerase (Pf-apPOL) (Q8ILY1 entry or part of it): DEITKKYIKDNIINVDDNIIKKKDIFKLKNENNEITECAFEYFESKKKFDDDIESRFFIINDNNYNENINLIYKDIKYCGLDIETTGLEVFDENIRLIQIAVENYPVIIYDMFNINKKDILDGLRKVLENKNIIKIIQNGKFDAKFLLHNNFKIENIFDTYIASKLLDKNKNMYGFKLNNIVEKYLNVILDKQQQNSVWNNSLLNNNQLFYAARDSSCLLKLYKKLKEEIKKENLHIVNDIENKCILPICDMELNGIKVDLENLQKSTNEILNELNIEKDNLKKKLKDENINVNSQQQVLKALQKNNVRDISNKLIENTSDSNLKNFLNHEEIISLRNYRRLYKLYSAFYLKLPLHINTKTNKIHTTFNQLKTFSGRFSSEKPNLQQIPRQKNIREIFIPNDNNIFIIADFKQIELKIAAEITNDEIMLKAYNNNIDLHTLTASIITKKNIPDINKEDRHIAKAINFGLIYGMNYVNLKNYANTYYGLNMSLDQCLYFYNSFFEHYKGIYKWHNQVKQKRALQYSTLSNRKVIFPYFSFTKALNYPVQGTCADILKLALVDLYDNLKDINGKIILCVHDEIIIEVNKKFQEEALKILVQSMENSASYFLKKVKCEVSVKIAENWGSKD

COc1ccc(C=C2Oc3c(ccc4c3CN(Cc3ccco3)CO4)C2=O)c(OC)c1 [KU0199404]
% inhibition Apo pol 10' (DRC-1; concentration 2.5; 10'): 1.778%
% inhibition Apol 90' (DRC-1; concentration 2.5; 90'): 6.394%
% inhibition apPOL 180' (DRC-1; concentration 2.5; 180'): 14.4773%
% inhibition Apo pol 10' (DRC-1; concentration 5; 10'): 2.359%
% inhibition Apol 90' (DRC-1; concentration 5; 90'): 10.7843%
% inhibition apPOL 180' (DRC-1; concentration 5; 180'): 25.2477%
% inhibition Apo pol 10' (DRC-1; concentration 10; 10'): 17.8134%
% inhibition Apol 90' (DRC-1; concentration 10; 90'): 29.7292%
% inhibition apPOL 180' (DRC-1; concentration 10; 180'): 48.7066%
% inhibition Apo pol 10' (DRC-1; concentration 20; 10'): 37.7158%
% inhibition Apol 90' (DRC-1; concentration 20; 90'): 50.8732%
% inhibition apPOL 180' (DRC-1; concentration 20; 180'): 69.9557%
% inhibition Apo pol 10' (DRC-1; concentration 40; 10'): 58.5562%
% inhibition Apol 90' (DRC-1; concentration 40; 90'): 70.9348%
% inhibition apPOL 180' (DRC-1; concentration 40; 180'): 86.2262%
% inhibition Apo pol 10' (DRC-1; concentration 80 (unit not given); 10'): 73.935%
% inhibition Apol 90' (DRC-1; concentration 80; 90'): 78.9077%
% inhibition apPOL 180' (DRC-1; concentration 80; 180'): 90.2103%
% inhibition Apo pol 5' (DRC-2; 5'; concentration 10): 33%
% inhibition Apo pol 5' (DRC-2; 5'; concentration 80): 49%
% inhibition Apol 40' (DRC-2; 40'; concentration 10): 33%
% inhibition Apol 40' (DRC-2; 40'; concentration 20): 49%
% inhibition Apo pol 5' (DRC-2; concentration 2.5; 5'): 5%
% inhibition Apol 40' (DRC-2; concentration 2.5; 40'): 1.45%
% inhibition ApPOL 90' (DRC-2; concentration 2.5; 90'): -0.679%
% inhibition apPOL 180' (DRC-2; concentration 2.5; 180'): -6%
% inhibition Apo pol 5' (DRC-2; concentration 5; 5'): 12%
% inhibition Apol 40' (DRC-2; concentration 5; 40'): 3.41%
% inhibition ApPOL 90' (DRC-2; concentration 5; 90'): -6.4%
% inhibition apPOL 180' (DRC-2; concentration 5; 180'): -80%
% inhibition Apo pol 5' (DRC-2; concentration 10; 5'): 33%
% inhibition Apol 40' (DRC-2; concentration 10; 40'): 33%
% inhibition ApPOL 90' (DRC-2; concentration 10; 90'): 30%
% inhibition apPOL 180' (DRC-2; concentration 10; 180'): 17%
% inhibition Apo pol 5' (DRC-2; concentration 20; 5'): 46%
% inhibition Apol 40' (DRC-2; concentration 20; 40'): 49%
% inhibition ApPOL 90' (DRC-2; concentration 20; 90'): 45%
% inhibition apPOL 180' (DRC-2; concentration 20; 180'): 31%
% inhibition Apo pol 5' (DRC-2; concentration 40; 5'): 52%
% inhibition Apol 40' (DRC-2; concentration 40; 40'): 58%
% inhibition ApPOL 90' (DRC-2; concentration 40; 90'): 56%
% inhibition apPOL 180' (DRC-2; concentration 40; 180'): 47%
% inhibition Apo pol 5' (DRC-2; concentration 80; 5'): 49%
% inhibition Apol 40' (DRC-2; concentration 80; 40'): 51%
% inhibition ApPOL 90' (DRC-2; concentration 80; 90'): 48%
% inhibition apPOL 180' (DRC-2; concentration 80; 180'): 43%
DNA Pol (primary screen value of the 186 hits; unit not given; 90 min, 10 µM): 29
DNA Pol (primary screen value; head prints only 'DNA Pol'; 90 min, 10 µM): 29

CSC1=C(C#N)C(=C(C#N)C#N)NC(c2ccccc2)=N1 [Molecule 2, CSc1nc([nH]c(=C(C#N)C#N)c1C#N)c1ccccc1]
DNA Pol ('DNA Pol' of the 186 hits list (primary screen result); unit not given; 90 min, 10 µM): 97
% inhibition Apo pol 10' (DRC-1; 10'; concentration 2.5): 13.8022%
% inhibition Apo pol 10' (DRC-1; 10'; concentration 5): 41.8918%
% inhibition Apo pol 10' (DRC-1; 10'; concentration 10): 81.1404%
% inhibition Apo pol 10' (DRC-1; 10'; concentration 20): 90.9481%
% inhibition Apo pol 10' (DRC-1; 10'; concentration 40): 95.8628%
% inhibition Apo pol 10' (DRC-1; 10'; concentration 80): 96.566%
% inhibition Apol 90' (DRC-1; 90'; concentration 2.5): 8.793%
% inhibition Apol 90' (DRC-1; 90'; concentration 5): 34.1727%
% inhibition Apol 90' (DRC-1; 90'; concentration 10): 79.1809%
% inhibition Apol 90' (DRC-1; 90'; concentration 20): 88.8682%
% inhibition Apol 90' (DRC-1; 90'; concentration 40): 93.6444%
% inhibition Apol 90' (DRC-1; 90'; concentration 80): 97.3798%
% inhibition apPOL 180' (DRC-1; 180'; concentration 2.5): 3.214%
% inhibition apPOL 180' (DRC-1; 180'; concentration 5): 23.1824%
% inhibition apPOL 180' (DRC-1; 180'; concentration 10): 72.8695%
% inhibition apPOL 180' (DRC-1; 180'; concentration 20): 86.4873%
% inhibition apPOL 180' (DRC-1; 180'; concentration 40): 92.4303%
% inhibition apPOL 180' (DRC-1; 180'; concentration 80): 97.316%
% inhibition Apo pol 5' (DRC-2; 5'; concentration 2.5): 8%
% inhibition Apo pol 5' (DRC-2; 5'; concentration 5): 21%
% inhibition Apo pol 5' (DRC-2; 5'; concentration 10): 38%
% inhibition Apo pol 5' (DRC-2; 5'; concentration 20): 53%
% inhibition Apo pol 5' (DRC-2; 5'; concentration 40): 57%
% inhibition Apo pol 5' (DRC-2; 5'; concentration 80): 60%
% inhibition Apol 40' (DRC-2; 40'; concentration 5): 25%
% inhibition Apol 40' (DRC-2; 40'; concentration 10): 47%
% inhibition Apol 40' (DRC-2; 40'; concentration 20): 65%
% inhibition Apol 40' (DRC-2; 40'; concentration 40): 69%
% inhibition Apol 40' (DRC-2; 40'; concentration 80): 76%
% inhibition ApPOL 90' (DRC-2; 90'; concentration 2.5): 9%
% inhibition ApPOL 90' (DRC-2; 90'; concentration 5): 22%
% inhibition ApPOL 90' (DRC-2; 90'; concentration 10): 46%
% inhibition ApPOL 90' (DRC-2; 90'; concentration 20): 66%
% inhibition ApPOL 90' (DRC-2; 90'; concentration 40): 70%
% inhibition ApPOL 90' (DRC-2; 90'; concentration 80): 79%
% inhibition apPOL 180' (DRC-2; 180'; concentration 2.5): 2.48%
% inhibition apPOL 180' (DRC-2; 180'; concentration 5): 13%
% inhibition apPOL 180' (DRC-2; 180'; concentration 10): 36%
% inhibition apPOL 180' (DRC-2; 180'; concentration 20): 61%
% inhibition apPOL 180' (DRC-2; 180'; concentration 40): 67%
% inhibition apPOL 180' (DRC-2; 180'; concentration 80): 80%
DNA Pol (primary screen value of the library well; unit not given; 90 min, 10 µM): 97
